# PMC8541628, “Development of Novel Quinoline-Based Sulfonamides as Selective Cancer-Associated Carbonic Anhydrase Isoform IX Inhibitors” (International Journal of Molecular Sciences, 2021)
# Experiments:
# [1] = biological target: hCA XII (Homo sapiens, UniProt O43570); experiment: stopped flow carbon dioxide hydrase assay, hCA XII; details: for Selectivity ratio I/XII: hCA XII over hCA I; for Selectivity ratio II/XII: hCA XII over hCA II
# [2] = tested on: MDA-MB-231; experiment: 72 h MTT anti-proliferative assay under hypoxic conditions, MDA-MB-231; format: cell-based; details: Homo sapiens, mean ± S.D. of three experiments
# Description: (§1) 1. Carbonic anhydrase inhibition assay
# The enzymes are recombinant proteins prepared in our lab.
# parameters and inhibition constants.
# 2. Anti-proliferative action toward human breast cell lines
# [3] = biological target: hCA II (Homo sapiens, UniProt P00918); experiment: stopped flow carbon dioxide hydrase assay, hCA II
# [4] = tested on: Bcl-2; experiment: Bcl-2 expression level (ELISA) in MDA-MB-231 cells; format: cell-based, human; details: for Bcl-2 / Bcl-2, folds of control: 24 h incubation; for decrease in the expression level of Bcl-2 protein: in comparison to the untreated control
# Description: The levels of two members of Bcl-2 family proteins, the anti-apoptotic Bcl-2 protein, and the counteracting pro-apoptotic Bax protein, as well as the level of active caspase-3 (a key executioner protease) in MDA-MB-231 and MCF-7 cells have been assessed after incubation with QBS 11c and 13b for 24 h.
# All adopted procedures for the conducted in vitro biological assays were performed as described earlier; CA (stopped-flow), cytotoxicity (MTT [37, 38]), and assessment of apoptotic markers assays, as well as induction of hypoxia with cobalt chloride, and were mentioned in the Supporting Materials. […]
# 3. Assessment of Apo ptotic Markers Levels
# The levels of the pro-apoptotic markers (Bax and active caspase-3) as well as the anti-apoptotic marker Bcl-2 were determined using ELISA kits; Human Bax ELISA Kit (EIA-4487) DRG® Instruments, Bcl-2 ELISA Kit (99–0042), Zymed® Laboratories, Invitrogen Immunodetection, and Human Caspase-3 (active) ELISA Kit (KHO1091) Invitrogen®, per the manufacturer’s instructions. Breast cancer MDA-MB-231 and MCF-7 cells were cultured as a monolayer in T-25 flasks and were seeded to attain 30% confluency prior to treatment. Cells were then treated separately with MBFS 11b at its IC50 concentration for 24 h. At the end of treatment, cells were collected via trypsinization and centrifuged at 10,000 rpm. The pellet was then rinsed with PBS and lysed in RIPA lysis buffer at 4 °C for 45 min, then centrifuged at 14,000 rpm for 20 min to remove the cellular debris. Lysates were then collected and stored at −80 °C for later protein determination using Pierce BCA Protein Assay Kit according to manufacturer’s recommendations.
# The cell lysate was diluted 10 times, and 100 μL ([…]) was added to the wells of […] separate microtiter plates for the three ELISA kits th at were pre-coated with primary antibodies specific to Bax, Bcl-2, and caspase-3 proteins, respectively. A secondary biotin-linked antibody specific to the protein captured by the primary antibody was further added to bind the […]
# captured protein, forming a “sandwich” of specific antibodies around the desired protein in the cell lysate. The streptavidin-HRP complex was then used to bind the biotin-linked secondary antibody through its streptavidin portion. The HRP domain reacted with the added TMB substrate to form a colored product that measured at 450 nm by a plate reader ChroMate-4300 after the reaction was terminated via the addition of stop solution. […]
# The ligand 3D structures were prepared by Maestro and their ionization states was checked with Epik at pH 7.4±0.5 then they were subjected to energy minimization using OPLS3 force field in Macromodel with a maximum number of 2500 conjugate gradient iteration and a convergence of 0.05 kcal mol−1 A−1. Glide with default parameters was u sed to generate th e docking g rid setting the center of the co-crystallized lig and s as grid center. Docking was performed using the standard precision mode (SP) implemented in Glide and the top 5 poses for each ligand were returned. Prime MMGBSA was used for the refinement of the best pose for each ligand, using VSGB solvation model setting the receptor flexible within 3 A around the ligand.
# [5] = tested on: MCF-7; experiment: 72 h MTT anti-proliferative assay under hypoxic conditions, MCF-7; format: cell-based; details: Homo sapiens, MCF7, mean ± S.D. of three experiments
# Description: Therefore, QBS 11c and 13b were further screened for their potential in vitro anti-proliferative action against two breast cancer cell lines (MDA-MB-231 and MCF-7) under hypoxic conditions, exploiting a 72 h MTT assay protocol and using Doxorubicin as a positive control drug.
# All adopted procedures for the conducted in vitro biological assays were performed as described earlier; CA (stopped-flow), cytotoxicity (MTT [37, 38]), and assessment of apoptotic markers assays, as well as induction of hypoxia with cobalt chloride, and were mentioned in the Supporting Materials.
# as §1
# 16) herein reported have were assayed utilizing an instrument of Applied Photophysics stopped-flow. The enzymes are recombinant proteins prepared in our lab. Phenol red (at a concentration of 0.2 mM) has been used as indicator, working at the absorbance maximum of 557 nm, with 20 mM Hepes (pH 7.5) as buffer, and 20 mM Na2SO4 (for maintaining constant the ionic strength), […]
# parameters and inhibition constants. For each inhibitor at least six traces of the initial 5-10% of the reaction have been used for determining the initial velocity . Th e un cat aly zed rates were determined in the same manner and subtracted from the total observed rates. Stock solutions of inhibitor (0.1 mM) were prepared in distilled-deionized water and dilutions up to 0.01 nM were done thereafter with the assay buffer. Inhibitor and enzyme solutions were preincubated together for 15 min at room temperature prior to assay, in order to allow fo r the formation of the E-I complex. […]
# Cells were sub-cultured with try psine /EDTA solution, counted with haemocy tometer and plated onto 96-well plates (5000 cells/well) and left overnight to form a semi-confluent […]
# monolay er. […] DMSO (100 µl/well) was added to dissolve the formazan crystals with shaking for 10 min after which the absorbance was read at 590 nm against no cell blanks on a FLuo Star Optima microplate reader (BMG technologies, Germany). Cell proliferation was calculated comparing the OD values of the DMSO control wells and those of the samples
# Chain of hCA XII (O43570 25-354): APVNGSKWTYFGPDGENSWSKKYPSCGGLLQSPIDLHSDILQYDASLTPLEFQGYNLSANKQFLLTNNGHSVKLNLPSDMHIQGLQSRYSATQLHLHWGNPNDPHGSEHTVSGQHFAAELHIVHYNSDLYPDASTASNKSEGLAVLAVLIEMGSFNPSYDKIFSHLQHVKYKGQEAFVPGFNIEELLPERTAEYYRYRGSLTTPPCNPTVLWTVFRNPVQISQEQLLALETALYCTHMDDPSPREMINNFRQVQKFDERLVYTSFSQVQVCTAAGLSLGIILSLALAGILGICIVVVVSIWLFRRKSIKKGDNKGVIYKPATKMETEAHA
Ki [1] [nM],Selectivity ratio I/XII [1],Selectivity ratio II/XII [1],IC50 [2] [nM],Ki [3] [nM],IC50 [5] [nM],SMILES,Bcl-2 [4],"Bcl-2, folds of control [4]",decrease in the expression level of Bcl-2 protein [4] [%]
55.3,8.0,2.8,1030 ± 50,155,430 ± 20,"NS(=O)(=O)c1cccc(Nc2ccnc3ccc(Cl)cc23)c1 [11c, 3-((6-chloroquinolin-4-yl)amino)benzenesulfonamide]",6.45 ± 0.17 Pg/mg of Total Protein,0.45 folds of control,55
13.2,7.0,4.4,2240 ± 100,58.4,3690 ± 170,"COc1ccc2nccc(Nc3ccc(S(N)(=O)=O)cc3)c2c1 [13b, 4-((6-methoxyquinolin-4-yl)amino)benzenesulfonamide]",5.304 ± 0.13 Pg/mg of Total Protein,0.37 folds of control,63
